“Also recorded” adds a separate entry of the source.
Experiments:
LLC-PK1 cells [1] = assay: MTT cell growth assay, LLC-PK1 cells; type: cell-based, pig
Protocol: (§1) FIG. 1A: LLC-PK1 cells, BT20 cells, and DU145 cells were subcultured in 96-well plates (10,000 cells/well) and serum starved. […] Cells were solublized by adding 100 μl/well detergent provided by ATCC after 90 min of incubation and OD570 was then measured.
Cell growth was then measured using MTT assay.
(§2) MTT assay for measuring cell proliferation: Cells were sub-cultured in 96 well plates at 10,000 cells/well in 100 μl culture medium. […] Ten μl MTT reagent (3-4,5-dimethylthiazol-2-yl)-2,5-diphenyltetrazolium bromide) was added to each well for 90 min. The formazan crystal was dissolved with detergent and the OD value was measured at 570 nm.

BT20 cells = assay: MTT cell growth assay, BT20 cells; type: cell-based, human; conditions: 24 h
Protocol: as §1, §2

DU145 cells [2] = assay: MTT cell growth assay, DU145 cells; type: cell-based, human; conditions: 24 h
Protocol: as §1, §2

[3] = tested on: P-11 cells (control vector-transfected LLC-PK1); assay: MTT cell growth assay, control P-11 cells; type: cell-based, pig; conditions: ouabain 1 to 10 nM, 16 h
Protocol: as §2

PY-17 cells = assay: MTT cell growth assay, Na/K-ATPase knock-down PY-17 cells; type: cell-based, pig
Protocol: FIG. 3B: The Na/K-ATPase knock-down cells (PY17) were treated with different digitalis compounds and the cell growth was measured by MTT assay.
as §2

LLC-PK1 cells [4] = assay: Cell growth curve (cell counting), LLC-PK1 cells; type: cell-based, pig; conditions: 10 and 50 nM ouabain
Protocol: (§3) FIG. 1B: The above three cell lines were subcultured in 12-well plates (50,000 cells/well) and serum starved.
(§4) Cell growth curve and cell cycle measurement: Cells were sub-cultured in 12 well plates at 50,000/well in 1 ml culture medium for 24 h. […] At each indicated time point, three wells of control or treated cells were trypsinized and counted. For cell cycle measurement, cells were trypsinized and re-suspended in Citrate buffer (8.55% sucrose, 1.18% Na citrated, 5% DMSO, pH 7.6), and stained with propidium iodide (PI). The stained cells were then analyzed by Flow Cytometry.

DU145 cells [5] = assay: Cell growth curve (cell counting), DU145 cells; type: cell-based, human; conditions: 10 nM ouabain
Protocol: as §3, §4

Na/K-ATPase α1 [6] = target: T1, Na/K-ATPase α1 (Mus musculus, UniProt Q8VDN2); assay: Na/K-ATPase α1 expression, SYF cells; type: cell-based; conditions: SYF cells (Src, Yes, Fin knocked out), 0.5 and 1.0 μM ouabain
T1 construct: endogenous in cells; host or cells: SYF cells; SYF cells rescued by c-Src
Excerpt: (§5) To further understand the molecular mechanism of ouabain-induced up-regulation of α1, the inventors first addressed the role of Src.

Na/K-ATPase α1 [7] = target: T1, Na/K-ATPase α1; assay: Na/K-ATPase α1 expression, SYF cells rescued by c-Src; type: cell-based; conditions: 0.5 and 1.0 μM ouabain
Excerpt: as §5

Na/K-ATPase β1 = Na/K-ATPase β1 expression by Western blot, LLC-PK1 cells; type: cell-based, pig; conditions: 10 nM ouabain, 24 h
Excerpt: Na/K-ATPase, but also in the formation of tight junctions and in suppression of tumor cell growth.

Na/K-ATPase α1 [8] = target: T2, Na/K-ATPase α1 (Sus scrofa, UniProt P05024); assay: Na/K-ATPase α1 degradation with cycloheximide, LLC-PK1 cells; type: cell-based, pig; conditions: cycloheximide pre-treatment, 10 nM ouabain for 6, 16 and 24 h
T2 construct: endogenous in cells; host or cells: LLC-PK1 (ATCC) and its caveolin-1 knock-down line C2-9
Excerpt: Cells without any treatment or only treated with CHX were used as control. The cells were collected at different time points and lysed in RIPA buffer. Equal amount of protein was loaded to analyze the Na/K-ATPase by Western blot. The representative Western blot and the quantification data from 4 experiments were shown. The Na/K-ATPase α1 amount at each time point was normalized against the control at the same time point.

Akt [9] = assay: Akt phosphorylation (pAkt) by Western blot, BT20 cells; type: cell-based, human; conditions: ouabain 15 min
Akt [10] = assay: Akt phosphorylation (pAkt) by Western blot, DU145 cells; type: cell-based, human; conditions: ouabain 15 min
Excerpt: The pAkt was probed by Western blot.

Akt [11] = assay: Akt phosphorylation, PY-17 cells; type: cell-based, pig; conditions: ouabain, data not shown
Akt [12] = assay: Akt phosphorylation (pAkt) by Western blot, C2-9 cells; type: cell-based, pig; conditions: ouabain 15 min
Protocol: The cell lysates were analyzed for pAkt.

[13] = target: T3, Na/K-ATPase in the plasma membrane (Homo sapiens, UniProt P05023); assay: 3H-ouabain binding after ouabain pre-treatment, DU145 cells; type: cell-based; set-up: endogenous in cells; conditions: ouabain 72 h
Protocol: (§6) The cells were washed and 3H-ouabain were performed as described herein. * p<0.05, ** p<0.01
(§7) To assess the functional consequence of these changes in α1 expression, the inventors measured the number of functional Na/K-ATPase in the plasma membrane.
(§8) Afterwards, cells were washed with serum-free medium and subjected to 3H-ouabain binding assay. Briefly, cells were incubated in K+-free Kreb's solution (NaCl 137 mM; KCl 0 mM; CaCl2 2.8 mM; NaH2PO4 0.6 mM; MgSO4 1.2 mM; dextrose; 10 mM; Tris 15 mM; pH7.4) for 15 min, and then exposed to 100 nM 3H-ouabain for 30 min at 37° C. At the end of incubation, the cells were washed 3 times with ice-cold K+-free Kreb's solution, solubilized in 0.1M NaOH-0.2% SDS, and counted in a scintillation counter for 3H-ouabain. […] Paralleled plates were used for counting cell numbers. 3H-ouabain binding data were calculated as binding sites per cell.

Na/K-ATPase α1 [14] = target: T4, Na/K-ATPase α1 (Homo sapiens, UniProt P05023); assay: Na/K-ATPase α1 degradation with cycloheximide, BT-20 cells; type: cell-based; set-up: endogenous in cells; host or cells: BT20; conditions: cycloheximide pre-treatment, 10 nM ouabain for 6, 16 and 24 h
Protocol: FIG. 6C: BT20 cells were treated as in panel B and assayed for Na/K-ATPase α1. *p<0.05.

[15] = target: T3, Na/K-ATPase in the plasma membrane; assay: 3H-ouabain binding after ouabain pre-treatment, BT20 cells; type: cell-based; set-up: endogenous in cells; host or cells: BT20 (intact cells); conditions: ouabain 72 h
Protocol: as §6, §7, §8

Na/K-ATPase α1 [16] = target: T4, Na/K-ATPase α1; assay: Na/K-ATPase α1 expression by Western blot, DU145 cells; type: cell-based; set-up: endogenous in cells; host or cells: BT20, DU145, MDA-MB-435s; conditions: ouabain 24 h or 72 h exposure
[17] = different concentrations of ouabain

Question: Which “cell growth with ouabain in rapamycin pre-treated cells (MTT)” value (LLC-PK1 cells [1]; LLC-PK1 cells pre-treated with rapamycin, 10 nM ouabain) does the source give for `C[C@@H]1O[C@@H](O[C@H]2C[C@@H](O)[C@]3(CO)[C@H]4[C@H](O)C[C@]5(C)[C@@H](C6=CC(=O)OC6)CC[C@]5(O)[C@@H]4CC[C@]3(O)C2)[C@H](O)[C@H](O)[C@H]1O` [ouabain] here?
Answer: Its value is “significant inhibition of cell growth; also recorded: significant inhibition of cell proliferation”.

Question: What about the “effect on cell growth (MTT)” value (LLC-PK1 cells [1]; LLC-PK1 cells, ouabain 1 to 50 nM, 24 h) of the same molecule?
Answer: The value was “stimulated cell growth”.

Question: What about the “effect on cell growth (MTT)” value (BT20 cells; 10-50 nM ouabain) of the same molecule?
Answer: Its value is “significant inhibition of cell growth”.

Question: And the “stimulatory effect on cell growth (MTT)” value (BT20 cells; [17])?
Answer: Its value is “failed to detect any stimulatory effect”.

Question: What about the “effect on cell growth (MTT)” value (DU145 cells [2]; 10-50 nM ouabain) of the same molecule?
Answer: Its value is “significant inhibition of cell growth”.

Question: What about the “stimulatory effect on cell growth (MTT)” value (DU145 cells [2]; [17]) of the same molecule?
Answer: Its value is “failed to detect any stimulatory effect”.

Question: And the “effect on cell growth (MTT)” value [3]?
Answer: Its value is “stimulated the cell growth”.

Question: What about the “growth stimulation (MTT)” value (PY-17 cells; PY17 cells, ouabain, 16 h) of the same molecule?
Answer: The value was “No growth stimulation was detected”.

Question: What about the “reduction in cell growth (MTT)” value (PY-17 cells; PY-17 cells, 10 nM ouabain) of the same molecule?
Answer: The value was “more than 30%”.

Question: And the “cell number as a function of time” value (LLC-PK1 cells [4])?
Answer: The value was “increased the number of LLC-PK1 cells in a time-dependent manner”.

Question: And the “block of cell growth (cell counting)” value (DU145 cells [5])?
Answer: Its value is “completely block the growth”.

Question: And the “ouabain-induced α1 expression” value (Na/K-ATPase α1 [6])?
Answer: The value was “completely blocked ouabain-induced α1 expression”.

Question: What about the “induction of α1 expression” value (Na/K-ATPase α1 [7]) of the same molecule?
Answer: The value was “three-fold induction”.

Question: What about the “Na/K-ATPase β1 expression” value (Na/K-ATPase β1) of the same molecule?
Answer: Its value is “modest increase in β1 expression”.

Question: And the “degradation of Na/K-ATPase α1 subunit” value (Na/K-ATPase α1 [8])?
Answer: Its value is “more degradation of al subunit; also recorded: more degradation of the a1 subunit”.

Question: And the Akt phosphorylation (Akt [9])?
Answer: The Akt phosphorylation was “failed to do so”.

Question: And the Akt phosphorylation (Akt [10])?
Answer: Its Akt phosphorylation is “failed to do so”.

Question: What about the Akt phosphorylation (Akt [11]) of the same molecule?
Answer: Its Akt phosphorylation is “no effect on Akt phosphorylation”.

Question: What about the “Akt stimulation (pAkt)” value (Akt [12]) of the same molecule?
Answer: Its value is “failed to stimulate Akt”.

Question: And the “surface active Na/K-ATPase (3H-ouabain binding)” value [13]?
Answer: The value was “significant decrease in surface active Na/K-ATPase”.

Question: And the “degradation of Na/K-ATPase α1 subunit” value (Na/K-ATPase α1 [14])?
Answer: Its value is “more degradation of al subunit; also recorded: more degradation of the a1 subunit”.

Question: What about the “surface active Na/K-ATPase (3H-ouabain binding)” value [15] of the same molecule?
Answer: Its value is “significant decrease in surface active Na/K-ATPase”.

Question: And the “cellular amount of Na/K-ATPase α1” value (Na/K-ATPase α1 [16])?
Answer: The value was “reduced the cellular amount of α1”.
